In patent US9255272B2, “Use of inhibitors of leukotriene B4 receptor BLT2 for treating asthma” (Korea University Research & Business Foundation, priority 2007, dated 2016):

What was measured:
Assay type in all cases: in vivo, mouse
[1] = tested on: BLT2 mRNA; test: BLT2 mRNA level in lung of OVA-challenged mice (semiquantitative RT-PCR, real-time PCR)
Protocol: Female BALB/c mice and C57BL/6 mice (7 weeks old; 18-20 g) were obtained from Orientbion Inc. (Seoungnam, Korea). Sensitization and challenge were carried out as described previously with some modification (28). Briefly, female C57BL/6 mice (7 weeks old; 18-20 g) were immunized by intraperitoneal (i.p.) injection of 200 μg ovalbumin (OVA) emulsified in 2.5 mg of adjuvant aluminum hydroperoxide gel (alum) (Pierce, Rockford, Ill.). A second i.p. injection of 20 μg OVA adsorbed onto alum (2.5 mg) was administered 10 days later. After an additional 10 days, mice were exposed to an aerosol of 1% OVA in saline for 30 min daily on 3 consecutive days. On day 25, mice were finally challenged by provocation with 10% OVA aerosol. […]
(§1) Total RNA was extracted from lung samples using Easy-blue RNA extraction reagent (Intron, Korea). […] For the semiquantitative analysis of transcripts, the optimal PCR conditions were first determined by linear amplification of glyceraldehyde-3-phosphate dehydrogenase (GAPDH). […]
as §1

[2] = tested on: IκB-α; test: IκB-α level in lung tissue (Western blot); details: lung tissue extracts
Protocol: (§2) Female BALB/c mice and C57BL/6 mice (7 weeks old; 18-20 g) were obtained from Orientbion Inc. (Seoungnam, Korea). Sensitization and challenge were carried out as described previously with some modification (28). Briefly, female C57BL/6 mice (7 weeks old; 18-20 g) were immunized by intraperitoneal (i.p.) injection of 200 μg ovalbumin (OVA) emulsified in 2.5 mg of adjuvant aluminum hydroperoxide gel (alum) (Pierce, Rockford, Ill.). A second i.p. injection of 20 μg OVA adsorbed onto alum (2.5 mg) was administered 10 days later. After an additional 10 days, mice were exposed to an aerosol of 1% OVA in saline for 30 min daily on 3 consecutive days. On day 25, mice were finally challenged by provocation with 10% OVA aerosol. For inhibition experiments, sense or antisense BLT2 (1.6 mg/kg) was injected intravenously 24 h and then 1 h before the 10% OVA challenge. The mice were then killed on day 27 to assess asthmatic phenotypes. Antisense BLT2 oligonucleotide (5′-[…]-3′ (SEQ ID NO: 15)), sense BLT2 oligonucleotide (5′-[…]-3′ (SEQ ID NO: 16)).
Alternatively, BALB/c mice were sensitized on day 1 by i.p. injection of 20 μg OVA emulsified in 2.5 mg of alum (Pierce, Rockford, Ill.), followed by an identical booster injection administered on day 14. On days 21, 22 and 23 after initial sensitization, the mice were challenged for 30 min with an aerosol of 1% OVA using an ultrasonic nebulizer. […]

[3] = tested on: OVA-challenged mice; test: Eosinophil infiltration in BAL fluid of OVA-challenged mice; details: C57BL/6 mice, 1.6 mg/kg i.v. 24 hr and 1 hr before 10% OVA challenge, 48 hr
Protocol: as §2
Inflammatory cells in the BAL fluid were collected by centrifugation (1,000 g for 3 min) and washed once in PBS. Cells were counted using a hemocytometer, and viability was assessed by trypan blue exclusion. […]

[4] = tested on: LTB4; test: LTB4 level in BAL fluid (EIA); details: antisense BLT2 1.6 mg/kg i.v. 24 h and 1 h before 10% OVA; 48 h
Protocol: Female BALB/c mice and C57BL/6 mice (7 weeks old; 18-20 g) were obtained from Orientbion Inc. (Seoungnam, Korea). Sensitization and challenge were carried out as described previously with some modification (28). Briefly, female C57BL/6 mice (7 weeks old; 18-20 g) were immunized by intraperitoneal (i.p.) injection of 200 μg ovalbumin (OVA) emulsified in 2.5 mg of adjuvant aluminum hydroperoxide gel (alum) (Pierce, Rockford, Ill.). A second i.p. injection of 20 μg OVA adsorbed onto alum (2.5 mg) was administered 10 days later. After an additional 10 days, mice were exposed to an aerosol of 1% OVA in saline for 30 min daily on 3 consecutive days. On day 25, mice were finally challenged by provocation with 10% OVA aerosol. For inhibition experiments, sense or antisense BLT2 (1.6 mg/kg) was injected intravenously 24 h and then 1 h before the 10% OVA challenge. The mice were then killed on day 27 to assess asthmatic phenotypes. […]
Levels of LTB4 were quantified with the leukotriene B4 enzyme immunoassay (EIA) Biotrak™ system (Amersham Biosciences, UK). […] Substrate (tetramethylbenzidine) was then added, and the reaction was stopped by adding an acid solution and the color read at 450 nm in a spectrophotometer. […] Statistical significance of differences between groups was assessed by analysis of variance, and P<0.05 was considered significant.

CCc1cc(C(C)=O)c(O)cc1OCCCCCC(C)(C)c1nnn[nH]1 [LY255283, 1-[5-ethyl-2-hydroxy-4-[[6-methyl-6-(1H-tetrazol-5-yl)heptyl]oxy]phenyl]-ethanone, reference compound]
level of BLT2 mRNA in the lung ([1]; BALB/c mice, LY255283 2.5 mg/kg i.v. 1 hr before 1% OVA challenge, 48 h after challenge): significantly reduced
reduction of IκB-α degradation following OVA challenge ([2]; LY255283 2.5 mg/kg 1 hr before 1% OVA challenge): −50%

antisense BLT2: Antisense BLT2 oligonucleotide 5′-GCTCAGTAGTGTCTCATTCC-3′ (SEQ ID NO: 15) (listed as DNA, chemistry not fully specified)
BLT2 expression in the lung (mRNA) ([1]; C57BL/6 mice, 1.6 mg/kg i.v. 24 hr and 1 hr before 10% OVA challenge, 48 hr after challenge): reduced
reduction of eosinophil infiltration in BAL fluids [3]: ~87%
suppression of the level of LTB4 in BAL fluid [4]: −72%
reduction of IκB-α degradation following OVA challenge ([2]; antisense BLT2 1.6 mg/kg): −50%
